# Patent US20130252816A1, “HERBICIDAL COMPOSITION AND USE THEREOF” (Syngenta Crop Protection LLC, priority 2010, published 2013)
# Tests used:
# Dandelion = assay: Example 3: branched chain alcohol ethoxylates in admixture with glyphosate, visual % damage, 600 l/ha; assay type: in vivo; details: adjuvant where present 5% w/v
# Method: (§1) The effects of different branched chain alcohol ethoxylates in admixture with glyphosate on both Dandelions and a mixture of grasses were investigated.
# (§2) Dandelion samples and a mixture of grasses obtained from a meadow environment were planted into square 20 cm pots and kept and grown on in glasshouse for at least 2 weeks (18 to 20° C., 60% relative humidity).
# (§3) Application of branched chain alcohol ethoxylate was carried out using a tracksprayer, spraying at a rate of 600 l/ha.
# (§4) Visual assessment of the estimated percentage damage to the plant was carried out 1, 6, 13, and 20 days from application.
# (§5) Damage was assessed as wilting, desiccation or any other kind of visual injury in comparison to the untreated control (water only).
# [1] = tested on: Dandelions and a mixture of grasses; assay: Example 3: overall statement, Dandelions and mixture of grasses; assay type: in vivo; details: absence of glyphosate, 5% w/v
# Method: as §1, §2, §3, §4, §5
# Grass mix = assay: Example 3: branched chain alcohol ethoxylates in admixture with glyphosate, visual % damage, 600 l/ha; assay type: in vivo, mixture of grasses; details: adjuvant where present 5% w/v
# Method: as §1, §2, §3, §4, §5
# Stellaria media [2] = assay: Example 1: adjuvants alone, visual % damage, pots in glasshouse; assay type: in vivo
# Method: (§6) The effect of different adjuvants (see Table 1 below) on the growth of broadleaf weed and grass species was investigated and compared to untreated (water only) control weeds.
# (§7) Plates, each with 48 pots measuring 2.7 cm diameter and 5 cm deep, were filled with TKS1 growing media (Floragard, Germany). Seeds of Taraxacum officinale, Stellaria media or Poa annua were sown on the surface (10 to 20 per pot). Plants were grown in glasshouse at a temperature of 18 to 20° C. and at 60% relative humidity.
# (§8) Plants were treated 15 (Stellaria, Poa) and 34 (Taraxacum) days after sowing with 60 μl of a 1.25, 2.5, 5 and 10% (w/v) solution of adjuvant using a hand airbrush.
# (§9) Visual assessment of the percentage damage to the plant was carried out 1 day and 6 days from application.
# as §5
# Poa annua [3] = assay: as above; assay type: in vivo
# Method: as §6, §7, §8, §9, §5
# Taraxacum officinale = assay: as above; assay type: in vivo
# Method: as §6, §7, §8, §9, §5
# [4] = tested on: broadleaf weeds and grasses; assay: Example 4: overall statement, broadleaf weeds and grasses; assay type: in vivo; details: 2.5% w/v in admixture with glyphosate (Weedbuster)
# Text: The effect on broadleaf weeds and grasses of different concentrations of Genapol™ X060 (iso-tridecyl alcohol polyglycol ether with 6 moles of ethoxylation) in admixture with glyphosate was investigated.
# Troughs (measuring 55 cm by 9 cm by 8.5 cm) were filled with local field soil. Seeds of Taraxacum officinale, Urtica dioica, Trifolium repens and Poa annua were sown 41 days before application of test samples, and seeds of Stellaria media, Veronica persica, Agropyron repens and Lolium multiflorum were sown 24 days before application of test samples. Plants were grown in the glasshouse at 18 to 20° C. and 60% relative humidity. One week before application of test samples, troughs were placed outside (but covered).
# Application of test samples was carried out using a tracksprayer, spraying at a rate of 300 l/ha. Treated plants were kept outside and visual assessment of the percentage damage to the plants was carried out at 1, 7, 14, and 21 days after application.
# as §5
# [5] = tested on: broadleaf weeds and grasses; assay: Example 1: overall statement on adjuvants alone; assay type: in vivo; details: 1 and 6 days after treatment, adjuvant alone
# Method: as §6, §7, §8, §9, §5
# [6] = tested on: broadleaf weed and grass species; assay: Example 2: overall statement on alcohol ethoxylates without glyphosate; assay type: in vivo; details: absence of glyphosate
# Text: The effect of different types of alcohol ethoxylate (branched—Genapol X-series, and unbranched—Genapol O-series, differing degrees of ethoxylation, see Table 3 below for more details), on unwanted vegetation (broadleaf weed and grass species), in the absence of glyphosate, was investigated and compared to untreated (water only) control weeds.
# Troughs (measuring 16 cm by 13 cm by 5 cm) were filled with local field soil. Seeds of Veronica persica, Stellaria media, Trifolium repens and Poa annua were sown 24 days before application of test samples. Plants were grown in the glasshouse at 18 to 20° C. and 60% relative humidity. Application of alcohol ethoxylate test samples was carried out using a tracksprayer, spraying at a rate of 300 l/ha. Plants were kept in glasshouse and visual assessment of the estimated percentage damage to the plant was carried out 1, 7, and 14 days from application.
# as §5
# Stellaria media [7] = assay: Example 2: alcohol ethoxylate adjuvants without glyphosate, visual % damage, tracksprayer 300 l/ha; assay type: in vivo
# Method in brief: (§10)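 Veronica persica, Stellaria media, Trifolium repens and Poa annua were sown 24 days before treatment and grown in a glasshouse at 18–20 °C and 60% RH. Alcohol ethoxylates without glyphosate were track-sprayed at 300 l/ha. Visual % damage (wilting, desiccation, other injury) versus water-only controls was scored 1, 7 and 14 days after application.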
# Poa annua [8] = assay: as above; assay type: in vivo
# Method in brief: as §10
# Veronica persica = assay: as above; assay type: in vivo
# Method in brief: as §10
# Trifolium repens = assay: as above; assay type: in vivo
# Method in brief: as §10
substance,measurement,setting,value
Iso-tridecyl alcohol polyglycol ether with 6 moles of ethoxylation [GenapolX060],% Damage 1 daa Dandelion,Dandelion,40%
same,% Damage 6 daa Dandelion,Dandelion,50%
same,% Damage 13 daa Dandelion,Dandelion,30%
same,% Damage 20 daa Dandelion,Dandelion,20%
same,course of damage over time (recovery),[1],the level of damage decreases from day 13 onwards
same,% Damage 1 daa Grass mix,Grass mix,20%
same,% Damage 6 daa Grass mix,Grass mix,50%
same,% Damage 13 daa Grass mix,Grass mix,40%
same,% Damage 20 daa Grass mix,Grass mix,40%
same,avg % damage 1 DAA Stellaria media,Stellaria media [2]; adjuvant 1.25% w/v,25%
same,avg % damage 6 DAA Stellaria media,Stellaria media [2]; adjuvant 1.25% w/v,35%
same,avg % damage 1 DAA Stellaria media,Stellaria media [2]; adjuvant 2.5% w/v,30%
same,avg % damage 6 DAA Stellaria media,Stellaria media [2]; adjuvant 2.5% w/v,40%
same,avg % damage 1 DAA Stellaria media,Stellaria media [2]; adjuvant 5% w/v,35%
same,avg % damage 6 DAA Stellaria media,Stellaria media [2]; adjuvant 5% w/v,65%
same,avg % damage 1 DAA Stellaria media,Stellaria media [2]; adjuvant 10% w/v,60%
same,avg % damage 6 DAA Stellaria media,Stellaria media [2]; adjuvant 10% w/v,85%
same,avg % damage 1 DAA Poa annua,Poa annua [3]; adjuvant 1.25% w/v,45%
same,avg % damage 6 DAA Poa annua,Poa annua [3]; adjuvant 1.25% w/v,50%
same,avg % damage 1 DAA Poa annua,Poa annua [3]; adjuvant 2.5% w/v,55%
same,avg % damage 6 DAA Poa annua,Poa annua [3]; adjuvant 2.5% w/v,70%
same,avg % damage 1 DAA Poa annua,Poa annua [3]; adjuvant 5% w/v,75%
same,avg % damage 6 DAA Poa annua,Poa annua [3]; adjuvant 5% w/v,80%
same,avg % damage 1 DAA Poa annua,Poa annua [3]; adjuvant 10% w/v,70%
same,avg % damage 6 DAA Poa annua,Poa annua [3]; adjuvant 10% w/v,80%
same,avg % damage 1 DAA Taraxacum officinale,Taraxacum officinale; adjuvant 1.25% w/v,5%
same,avg % damage 6 DAA Taraxacum officinale,Taraxacum officinale; adjuvant 1.25% w/v,20%
same,avg % damage 1 DAA Taraxacum officinale,Taraxacum officinale; adjuvant 2.5% w/v,10%
same,avg % damage 6 DAA Taraxacum officinale,Taraxacum officinale; adjuvant 2.5% w/v,20%
same,avg % damage 1 DAA Taraxacum officinale,Taraxacum officinale; adjuvant 5% w/v,30%
same,avg % damage 6 DAA Taraxacum officinale,Taraxacum officinale; adjuvant 5% w/v,40%
same,avg % damage 1 DAA Taraxacum officinale,Taraxacum officinale; adjuvant 10% w/v,45%
same,avg % damage 6 DAA Taraxacum officinale,Taraxacum officinale; adjuvant 10% w/v,35%
same,rapid symptomology versus Roundup and Weedbuster,[4],more rapid symptomology against all weeds in comparison to Roundup
same,visual symptoms of phytotoxicity,[5],comparatively high level of visual symptoms of phytoxicity
same,course of damage over time (recovery),[6],the level of damage decreases from day 14 onwards
same,mean % damage 1 daa Stellaria media,Stellaria media [7]; adjuvant 1% w/v,5%
same,mean % damage 7 daa Stellaria media,Stellaria media [7]; adjuvant 1% w/v,5%
same,mean % damage 14 daa Stellaria media,Stellaria media [7]; adjuvant 1% w/v,0%
same,mean % damage 1 daa Stellaria media,Stellaria media [7]; adjuvant 1.5% w/v,10%
same,mean % damage 7 daa Stellaria media,Stellaria media [7]; adjuvant 1.5% w/v,10%
same,mean % damage 14 daa Stellaria media,Stellaria media [7]; adjuvant 1.5% w/v,0%
same,mean % damage 1 daa Stellaria media,Stellaria media [7]; adjuvant 2% w/v,10%
same,mean % damage 7 daa Stellaria media,Stellaria media [7]; adjuvant 2% w/v,30%
same,mean % damage 14 daa Stellaria media,Stellaria media [7]; adjuvant 2% w/v,10%
same,mean % damage 1 daa Stellaria media,Stellaria media [7]; adjuvant 2.5% w/v,20%
same,mean % damage 7 daa Stellaria media,Stellaria media [7]; adjuvant 2.5% w/v,40%
same,mean % damage 14 daa Stellaria media,Stellaria media [7]; adjuvant 2.5% w/v,20%
same,mean % damage 1 daa Poa annua,Poa annua [8]; adjuvant 1% w/v,20%
same,mean % damage 7 daa Poa annua,Poa annua [8]; adjuvant 1% w/v,30%
same,mean % damage 14 daa Poa annua,Poa annua [8]; adjuvant 1% w/v,10%
same,mean % damage 1 daa Poa annua,Poa annua [8]; adjuvant 1.5% w/v,20%
same,mean % damage 7 daa Poa annua,Poa annua [8]; adjuvant 1.5% w/v,40%
same,mean % damage 14 daa Poa annua,Poa annua [8]; adjuvant 1.5% w/v,10%
same,mean % damage 1 daa Poa annua,Poa annua [8]; adjuvant 2% w/v,40%
same,mean % damage 7 daa Poa annua,Poa annua [8]; adjuvant 2% w/v,50%
same,mean % damage 14 daa Poa annua,Poa annua [8]; adjuvant 2% w/v,15%
same,mean % damage 1 daa Poa annua,Poa annua [8]; adjuvant 2.5% w/v,40%
same,mean % damage 7 daa Poa annua,Poa annua [8]; adjuvant 2.5% w/v,50%
same,mean % damage 14 daa Poa annua,Poa annua [8]; adjuvant 2.5% w/v,0%
same,mean % damage 1 daa Veronica persica,Veronica persica; adjuvant 1% w/v,10%
same,mean % damage 7 daa Veronica persica,Veronica persica; adjuvant 1% w/v,10%
same,mean % damage 14 daa Veronica persica,Veronica persica; adjuvant 1% w/v,5%
same,mean % damage 1 daa Veronica persica,Veronica persica; adjuvant 1.5% w/v,20%
same,mean % damage 7 daa Veronica persica,Veronica persica; adjuvant 1.5% w/v,20%
same,mean % damage 14 daa Veronica persica,Veronica persica; adjuvant 1.5% w/v,10%
same,mean % damage 1 daa Veronica persica,Veronica persica; adjuvant 2% w/v,70%
same,mean % damage 7 daa Veronica persica,Veronica persica; adjuvant 2% w/v,70%
same,mean % damage 14 daa Veronica persica,Veronica persica; adjuvant 2% w/v,50%
same,mean % damage 1 daa Veronica persica,Veronica persica; adjuvant 2.5% w/v,60%
same,mean % damage 7 daa Veronica persica,Veronica persica; adjuvant 2.5% w/v,40%
same,mean % damage 14 daa Veronica persica,Veronica persica; adjuvant 2.5% w/v,40%
same,mean % damage 1 daa Trifolium repens,Trifolium repens; adjuvant 1% w/v,40%
same,mean % damage 7 daa Trifolium repens,Trifolium repens; adjuvant 1% w/v,40%
same,mean % damage 14 daa Trifolium repens,Trifolium repens; adjuvant 1% w/v,0%
same,mean % damage 1 daa Trifolium repens,Trifolium repens; adjuvant 1.5% w/v,60%
same,mean % damage 7 daa Trifolium repens,Trifolium repens; adjuvant 1.5% w/v,50%
same,mean % damage 14 daa Trifolium repens,Trifolium repens; adjuvant 1.5% w/v,0%
same,mean % damage 1 daa Trifolium repens,Trifolium repens; adjuvant 2% w/v,70%
same,mean % damage 7 daa Trifolium repens,Trifolium repens; adjuvant 2% w/v,60%
same,mean % damage 14 daa Trifolium repens,Trifolium repens; adjuvant 2% w/v,0%
same,mean % damage 1 daa Trifolium repens,Trifolium repens; adjuvant 2.5% w/v,70%
same,mean % damage 7 daa Trifolium repens,Trifolium repens; adjuvant 2.5% w/v,60%
same,mean % damage 14 daa Trifolium repens,Trifolium repens; adjuvant 2.5% w/v,5%
